Test results as given in ChEMBL document CHEMBL1208782, “Synthesis and pharmacological validation of a novel series of non-steroidal FXR agonists” (Bioorg Med Chem Lett, 2010).
pEC50: −log10 of the molar value.

What was measured:
[1] = biological target: T1, Bile acid receptor (Homo sapiens) (UniProt Q96RI1); assay: Agonist activity at human […] FXR LBD expressed in HEK293 cells coexpressing GAL4-DNA bindig domain and pFRluc by mammalian one-hybrid assay relative to GW-4064; format: functional, cell-based
T1 sequence (whole entry): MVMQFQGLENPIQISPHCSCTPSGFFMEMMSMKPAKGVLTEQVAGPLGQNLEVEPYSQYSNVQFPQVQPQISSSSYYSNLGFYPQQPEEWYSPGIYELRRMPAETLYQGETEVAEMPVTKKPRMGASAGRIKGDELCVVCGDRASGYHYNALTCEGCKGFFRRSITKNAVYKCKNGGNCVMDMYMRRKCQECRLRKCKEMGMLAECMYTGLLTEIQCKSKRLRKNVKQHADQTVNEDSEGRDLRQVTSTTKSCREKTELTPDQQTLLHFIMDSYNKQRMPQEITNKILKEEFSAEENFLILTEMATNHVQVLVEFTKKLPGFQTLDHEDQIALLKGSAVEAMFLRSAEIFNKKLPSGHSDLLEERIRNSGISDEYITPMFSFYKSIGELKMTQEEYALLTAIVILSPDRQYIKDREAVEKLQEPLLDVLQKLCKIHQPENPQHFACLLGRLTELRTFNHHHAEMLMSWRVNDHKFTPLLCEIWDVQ

[2] = biological target: T2, Bile acid receptor (Homo sapiens, UniProt Q96RI1); assay: Agonist activity at human GST-fused FXR LBD assessed as cofactor peptide interaction with receptor ligand binding domain by FRET assay
T2 sequence (Q96RI1 whole entry): T1 sequence (whole entry)

[3] = biological target: T2, Bile acid receptor; assay: Agonist activity at human […] FXR LBD expressed in HEK293 cells coexpressing GAL4-DNA bindig domain and pFRluc by mammalian one-hybrid assay; format: functional, cell-based; details: for pEC50: read-out: EC50
[4] = biological target: T1, Bile acid receptor (Homo sapiens); assay: Agonist activity at human GST-fused FXR LBD assessed as cofactor peptide interaction with receptor ligand binding domain by FRET assay relative to GW-4064
[5] = biological target: T2, Bile acid receptor; assay: Agonist activity at human full length FXR transfected in HEK293 cells coexpressing pTRexDest/pGL2promotor assessed as luciferase activity by direct reporter cellular assay; format: functional, cell-based; details: for pEC50: read-out: EC50
[6] = biological target: T1, Bile acid receptor (Homo sapiens); assay: Agonist activity at human full length FXR transfected in HEK293 cells coexpressing pTRexDest/pGL2promotor assessed as luciferase activity by direct reporter cellular assay relative to GW-4064; format: functional, cell-based

Row | Efficacy [1] [%] | pEC50 [2] | pEC50 [3] | Efficacy [4] [%] | pEC50 [5] | Efficacy [6] [%] | EC50 ([3]; hek293) | EC50 ([5]; hek293) | SMILES
1 | 35 | 6.36 | 6.24 | 110 | 6.27 | 55 |  |  | CC(C)c1onc(-c2c(Cl)cccc2Cl)c1COc1ccc(N(C)C(=O)c2cccc(C(=O)O)c2)c(C(F)(F)F)n1
2 | 70 | 6.62 | 6.97 | 103 | 6.92 | 51 |  |  | CC(C)c1onc(-c2c(Cl)cccc2Cl)c1COc1cnc(N(C)Cc2ccc(C(=O)O)cc2)c(Cl)c1
3 | 64 | 7.40 | 6.66 | 105 | 7.96 | 67 |  |  | CC(C)c1onc(-c2c(Cl)cccc2Cl)c1COc1ccc(N(C)Cc2ccc(C(=O)NS(C)(=O)=O)cc2)c(C(F)(F)F)n1
4 | 100 |  |  | 100 |  | 100 |  |  | CC(C)c1onc(-c2c(Cl)cccc2Cl)c1COc1ccc(/C=C/c2cccc(C(=O)O)c2)c(Cl)c1
5 | 58 |  |  | 101 |  | 76 |  |  | Cc1cc(OCc2c(-c3c(Cl)cccc3Cl)noc2C(C)C)ncc1[N+](=O)[O-]
6 | 89 | 7.92 | 7.10 | 102 | 8.22 | 58 |  |  | CC(C)c1onc(-c2c(Cl)cccc2Cl)c1COc1ccc(N(C)Cc2cccc(C(=O)O)c2)c(C(F)(F)F)n1
7 | 69 | 7.46 | 6.67 | 90 | 7.72 | 59 |  |  | CC(C)c1onc(-c2c(Cl)cccc2Cl)c1COc1ccc(N(C)Cc2ccc(OCC(=O)O)cc2)c(C(F)(F)F)n1
8 | 59 | 7.32 | 6.55 | 110 | 7.70 | 72 |  |  | CC(C)c1onc(-c2c(Cl)cccc2Cl)c1COc1ccc(N(C)Cc2cccc(C(=O)NS(C)(=O)=O)c2)c(C(F)(F)F)n1
9 | 43 | 6.79 | 5.94 | 87 | 6.81 | 59 |  |  | CC(C)c1onc(-c2c(Cl)cccc2Cl)c1COc1ccc(N(C)Cc2ccc(OCCO)cc2)c(C(F)(F)F)n1
10 | 42 | 6.72 | 7.00 | 105 | 7.21 | 54 |  |  | CC(C)c1onc(-c2c(Cl)cccc2Cl)c1COc1cnc(N(C)Cc2cccc(C(=O)O)c2)c(Cl)c1
11 | 48 | 6.79 | 6.40 | 97 | 7.00 | 45 |  |  | CC(C)c1onc(-c2c(Cl)cccc2Cl)c1COc1ccc(NCc2ccc(C(=O)O)cc2)c(C(F)(F)F)n1
12 | 40 | 6.83 | 6.27 | 104 | 6.06 | 68 |  |  | Cc1cc(OCc2c(-c3c(Cl)cccc3Cl)noc2C(C)C)nc2ccccc12
13 | 48 | 7.44 | 6.34 | 114 | 6.67 | 61 |  |  | CC(C)c1onc(-c2c(Cl)cccc2Cl)c1COc1ccc(N(C)Cc2cccc(C(=O)NCCOP(=O)(O)O)c2)c(C(F)(F)F)n1
14 | 63 | 6.36 | 5.77 | 91 | 6.21 | 33 |  |  | O=C(O)c1ccccc1OCc1ccc(OCc2c(-c3c(Cl)cccc3Cl)noc2C2CC2)nc1C(F)(F)F
15 | 59 | 7.12 | 7.02 | 86 | 7.42 | 42 |  |  | O=C(O)c1ccc(OCc2ccc(OCc3c(-c4c(Cl)cccc4Cl)noc3C3CC3)nc2C(F)(F)F)cc1
16 |  | 6.65 |  |  |  |  | Not Active | Not Active | Cc1cc(C(F)(F)F)cc(OCc2c(-c3c(Cl)cccc3Cl)noc2C(C)C)n1
17 | 55 | 6.75 | 6.68 | 102 | 6.74 | 57 |  |  | CC(c1ccc(OCc2c(-c3c(Cl)cccc3Cl)noc2C2CC2)nc1C(F)(F)F)N(C)c1ccc(C(=O)O)cc1 (stereo not given)
18 | 55 | 7.77 | 7.46 | 96 | 7.80 | 66 |  |  | CC(C)c1onc(-c2c(Cl)cccc2Cl)c1COc1ccc(N(C)Cc2ccc(CCC(=O)O)cc2)c(C(F)(F)F)n1
19 | 70 | 6.45 | 6.72 | 89 | 6.21 | 33 |  |  | CC(Oc1ccc(C(=O)O)cc1)c1ccc(OCc2c(-c3c(Cl)cccc3Cl)noc2C2CC2)nc1C(F)(F)F (stereo not given)
20 |  | 7.05 | 6.00 |  | 5.94 |  |  |  | Cc1cc(OCc2c(-c3c(Cl)cccc3Cl)[n-][o+]c2C(C)C)ncc1[N+](=O)[O-]
21 | 36 | 6.63 | 6.50 | 101 | 6.68 | 63 |  |  | CC(C)c1onc(-c2c(Cl)cccc2Cl)c1COc1ccc(N(C)C(=O)c2ccc(C(=O)O)cc2)c(C(F)(F)F)n1
22 | 21 | 6.44 | 5.69 | 95 | 5.92 | 49 |  |  | Cc1nc(OCc2c(-c3c(Cl)cccc3Cl)noc2C(C)C)ccc1N(C)C(=O)c1ccc(C(=O)O)cc1
23 | 54 | 6.71 | 6.74 | 94 | 6.95 | 43 |  |  | CCN(Cc1ccc(C(=O)O)cc1)c1ccc(OCc2c(-c3c(Cl)cccc3Cl)noc2C2CC2)nc1C(F)(F)F
24 | 50 | 6.81 | 6.97 | 102 | 7.24 | 49 |  |  | CC(Oc1cccc(C(=O)O)c1)c1ccc(OCc2c(-c3c(Cl)cccc3Cl)noc2C2CC2)nc1C(F)(F)F (stereo not given)
25 | 62 | 7.37 | 6.82 | 98 | 7.48 | 41 |  |  | O=C(O)c1cccc(OCc2ccc(OCc3c(-c4c(Cl)cccc4Cl)noc3C3CC3)nc2C(F)(F)F)c1
26 | 21 | 6.34 | 6.32 | 109 | 6.41 | 48 |  |  | CC(C)c1onc(-c2c(Cl)cccc2Cl)c1COc1ccc(NC(=O)c2ccc(C(=O)O)cc2)c(C(F)(F)F)n1
27 | 59 | 7.00 | 6.48 | 99 | 6.69 | 49 |  |  | CC(Nc1ccc(C(=O)O)cc1)c1ccc(OCc2c(-c3c(Cl)cccc3Cl)noc2C2CC2)nc1C(F)(F)F (stereo not given)
